# Data reported in ChEMBL document CHEMBL5724558, “Image-based profiling of drug vulnerabilities in CRC organoids” (2024).
# “And” between values parts separate entries of the source, which are not always exact repeats. Equal entries are not always repeated.
# Key:
# Format in all cases: functional, Homo sapiens
# Parameters in all cases: dose or concentration left out as unconfirmed
# Colon cancer organoid [1] = assay: (§1) Image-based profiling of donated chemical probes and chemogenomic kinase set in O06 CRC organoid. Image analysis is performed on the sum area metric, and the data were normalized to the DMSO control. After imaging the organoid viability is measured using the OneGloEX Luciferase Assay System. The normalized viability data and sum area are reported.
# Colon cancer organoid [2] = assay: as §1, with “O09” for “O06”
# Colon cancer organoid [3] = assay: as §1, with “O21” for “O06”
Structure (SMILES),Cell Viability (Colon cancer organoid [1]; Replication number 1),Cell Viability (Colon cancer organoid [1]; Replication number 2),Cell Viability (Colon cancer organoid [2]; Replication number 1),Cell Viability (Colon cancer organoid [2]; Replication number 2),Cell Viability (Colon cancer organoid [3]; Replication number 1),Cell Viability (Colon cancer organoid [3]; Replication number 2)
CN1CCN(c2ccc(-c3cccc(CN4CCOCC4)c3)cc2NC(=O)c2c[nH]c(=O)cc2C(F)(F)F)CC1,183.315% and 145.933%,137.387% and 99.6548%,103.563% and 97.1406%,155.063% and 99.7783%,76.0385% and 85.8263%,102.756% and 104.714%
CC(C)Oc1ccc(-c2c[nH]cc2CN(C)CCN)cc1,21.9267% and 37.2081%,18.5621% and 35.8471%,64.4727% and 62.1329%,85.7978% and 86.9496%,91.7863% and 65.8393%,93.2232% and 70.8831%
Cc1ncsc1-c1ccc(CNC(=O)[C@@H]2C[C@@H](O)CN2C(=O)[C@@H](NC(=O)CCCCNC(=O)c2ccc(-c3ccc(N4CCN(C)CC4)c(NC(=O)c4c[nH]c(=O)cc4C(F)(F)F)c3)cc2)C(C)(C)C)cc1,127.591% and 97.9274%,138.236% and 103.65%,189.737% and 102.727%,128.896% and 122.558%,88.0354% and 100.906%,93.0619% and 103.634%
N#CN1CC[C@H](C(=O)Nc2nc3c(s2)CN(C(=O)CN=[N+]=[N-])CC3)C1 [8RK64],79.1245% and 96.1943%,91.4374% and 108.602%,73.5983% and 85.3445%,74.3628% and 83.6638%,96.0935% and 89.4871%,85.4285% and 89.7349%
CN(C)[C@@H]1CCN(c2cc(-c3ccccc3)nc3ccnn23)C1 [(R)-ZINC-3573],99.7285% and 119.514%,116.173% and 112.206%,69.8572% and 93.5976%,61.7883% and 100.515%,105.256% and 112.95%,102.245% and 84.1264%
CN(C)[C@H]1CCN(c2cc(-c3ccccc3)nc3ccnn23)C1 [(S)-ZINC-3573],125.32% and 118.543%,115.524% and 96.3479%,74.4521% and 108.791%,105.794% and 104.481%,105.743% and 100.4%,101.814% and 109.109%
Cn1cncc1[C@@](O)(COc1ccc(C#N)cc1-c1ccc(OC(F)(F)F)cc1)c1ccc(C#N)cc1 [A-108],98.5597% and 105.855%,74.5028% and 111.105%,62.58% and 86.4879%,152.883% and 128.222%,75.0431% and 83.2471%,104.838% and 112.755%
CCC(=N\O)/C(C)=C/c1ccc(F)c(C)c1 [A-226],97.0228% and 105.855%,79.4149% and 80.7818%,100.912% and 93.6554%,132.086% and 110.405%,109.207% and 89.6507%,103.65% and 86.2245%
CCCCN(CCCC)C(=O)CN1C[C@@H](c2cc(OC)c3c(c2)OCO3)[C@H](C(=O)O)[C@H]1CC(C)(C)CCC [A-545],97.8309% and 86.6511%,75.1695% and 72.7273%,137.08% and 104.407%,151.031% and 114.494%,100.23% and 87.9043%,101.691% and 84.1837%
CSc1cccnc1N1CCN(Cc2nc3ccccc3[nH]2)CC1 [A-769],94.9192% and 98.1265%,78.7963% and 95.9431%,134.459% and 96.2835%,149.547% and 115.371%,84.3952% and 76.2613%,99.9235% and 83.6735%
CO[C@H]1CC[C@H](CNc2ccc(S(=O)(=O)NC(=O)c3ccc(N4CCN(CC5=C(c6ccc(Cl)cc6)CC(C)(C)CC5)CC4)cc3Oc3cnc4[nH]ccc4c3)cc2[N+](=O)[O-])CC1 [A-1211212],28.9146% and 70.6883%,21.4505% and 46.3719%,50.8739% and 100.725%,51.2572% and 87.2324%,101.35% and 117.861%,64.2952% and 94.8335%
COc1ccc2c(c1)O[C@H](c1ccc(OC)c(OC)c1)C[C@@H]2NC(=O)C1(c2ccc3c(c2)OC(F)(F)O3)CC1 [A-1596584],59.7741% and 88.9069%,99.5304% and 111.725%,121.374% and 104.664%,90.4474% and 94.7661%,106.5% and 117.861%,103.505% and 102.481%
COc1ccc2c(c1)O[C@@H](c1ccc(OC)c(OC)c1)C[C@H]2NC(=O)C1(c2ccc3c(c2)OC(F)(F)O3)CC1 [A-1596586],114.211% and 123.158%,130.418% and 120.375%,77.2703% and 96.7863%,76.2669% and 106.86%,105.739% and 116.224%,98.6022% and 86.1659%
CCNC(=O)c1cc2c(-c3cc(C(C)(C)O)ccc3Oc3c(C)cc(F)cc3C)cn(C)c(=O)c2[nH]1 [ABBV-744],111.05% and 99.302%,81.1787% and 70.2602%,57.6147% and 40.8037%,73.5027% and 48.4637%,105.916% and 106.401%,102.084% and 111.158%
CC#CC(=O)N1CCC[C@H]1c1nc(-c2ccc(C(=O)Nc3ccccn3)cc2)c2c(N)nccn12 [ACALABRUTINIB],108.483% and 104.159%,68.1537% and 91.7224%,72.6716% and 83.0294%,131.144% and 94.2129%,90.1303% and 116.516%,93.0581% and 134.149%
CN(C)C/C=C/C(=O)Nc1cc2c(Nc3ccc(F)c(Cl)c3)ncnc2cc1O[C@H]1CCOC1.O=C(O)/C=C\C(=O)O.O=C(O)/C=C\C(=O)O [AFATINIB DIMALEATE],4.81% and 9.6592%,4.363% and 10.2005%,8.847% and 13.6138%,6.151% and 10.3121%,61.0357% and 82.5087%,65.3803% and 88.665%
Cc1nc(NC(=O)N2CCC[C@H]2C(N)=O)sc1-c1ccnc(C(C)(C)C(F)(F)F)c1 [ALPELISIB],55.6533% and 63.4302%,57.1927% and 78.1491%,78.5129% and 75.0506%,83.7581% and 44.8119%,82.706% and 92.5436%,73.0527% and 85.7863%
Cc1cnc(-c2cc(Cl)ccc2F)cc1-n1c(=O)n(CC(N)=O)c2ccccc21 [Al11],119.898% and 115.628%,113.033% and 103.316%,78.4595% and 96.5987%,101.459% and 100.317%,94.0699% and 103.674%,91.9117% and 97.8926%
Cc1ccccc1Oc1cc(-n2c(=O)cc(C(F)(F)F)[nH]c2=O)c2ccccc2c1Cl [BAY-069],107.213% and 122.915%,117.719% and 113.888%,112.474% and 107.103%,148.882% and 102.498%,99.7794% and 121.135%,101.27% and 93.8137%
Cn1c(-c2csc(C3CCN(CC4=NC5N=CC=CC5N4)CC3)n2)nc2ccccc21 (centres undefined) [BAY-070],51.6449% and 96.9231%,54.618% and 76.4056%,60.3085% and 58.8971%,70.2327% and 76.9231%,109.219% and 99.8545%,106.656% and 102.481%
NS(=O)(=O)c1cc(NC(=O)C2(c3ccccc3Cl)CC2)ccc1Oc1cccc(Cl)c1 [BAY-207],85.045% and 103.044%,47.3713% and 82.6769%,172.466% and 128.537%,110.661% and 134.648%,111.619% and 128.655%,96.7656% and 94.898%
CNCc1ccccc1-c1csc([C@@H](C)Nc2nc(C)nc3cc(OC)c(OC)cc23)c1 [BAY-293],,9.059% and 19.7098%,109.186% and 103.451%,63.3306% and 79.153%,45.2566% and 84.9935%,50.5698% and 76.0204%
Cc1cc(NC(=O)c2cccc(S(F)(F)(F)(F)F)c2)cc(-n2ccn3nc(-c4cccnc4)cc23)c1 [BAY-309],100.937% and 113.583%,92.9473% and 106.13%,161.366% and 84.5766%,126.224% and 101.643%,93.9876% and 96.6365%,97.5385% and 109.184%
O=C(N1CCS(=O)(=O)CC1)N1C[C@H](c2ccc(OC(F)(F)F)cc2)C[C@H](c2nc(C3CC3)no2)C1 [BAY-386],89.0523% and 95.7845%,109.266% and 112.289%,89.9865% and 101.779%,61.3549% and 77.1084%,113.622% and 103.04%,77.465% and 87.7551%
Cc1c(N2CCNCC2)nc2ccc(Br)cc2c1C(=O)NC[C@H](CCC(=O)O)c1ccccc1Cl [BAY-403],84.3877% and 124.372%,102.985% and 123.739%,84.5203% and 109.166%,120.857% and 102.102%,86.0908% and 103.128%,96.6508% and 95.8532%
